The test system of series [1] is local anesthesia from 2% polocaine (mepivacaine hydrochloride) with levonordefrin in healthy, male human subjects. In words: Human subjects study of local anesthesia reversal by LARA versus saline vehicle (bilateral injections). In kind it is in vivo. The note with it: three subjects; 0.05 mg/ml phentolamine-mesylate, 1.6 ml (0.08 mg). As to the method: An injection of the physiological saline vehicle (without phentolamine-mesylate) served as the control. […] This was followed by injection of the phentolamine-mesylate containing local anesthetic reversal agent (LARA) into one side of the oral cavity, and injection of the saline vehicle (control) solution into the opposite side of the oral cavity. The time to reversal of the local anesthetic effect on both sides was then recorded to determine whether there is a difference between the two sides.
The local anesthetic used was 2% polocaine (mepivacaine hydrochloride) with levonordefrin (1:20,000=0.05 mg/ml) (levonordefrin injection, USP) (Astra USA, Inc., Westborough, Mass. 01581). Levonordefrin is a sympathomimetic amine with a pharmacological profile similar to that of epinephrine, but with a lower potency.
Three healthy, male human subjects, age 34-50, volunteered to have local anesthetic injected in the mouth bilaterally under the lip in an easily repeatable location. The exact time of each injection was recorded. The position chosen was above (apical) the prominence of the root of the upper cuspid teeth. This is a common site selected to numb the cuspids, lateral incisors and upper lip. The volume of the local anesthetic injected was 1.7+0.1 ml on each side of the mouth. […]

The next series has as its system patients. The following applies: systemic doses; usually in association with marked hypotensive episodes; cited from earlier work.
In series [2] the test system is patients pretreated with lignocaine admixed with epinephrine. The following applies: 0.5-1.5 mg; '714 patent Example 1, Table 1; cited from earlier work.

Structures are written as SMILES. Entries after “also recorded” stand apart in the source; their conditions may differ. Structures can show the parent of a compound that is named as a salt.

As for `Cc1ccc(N(CC2=NCCN2)c2cccc(O)c2)cc1` [phentolamine-mesylate, phentolamine mesylate], in series [1], the “local anesthesia reversal compared to saline side (in words)” value is given as “highly effective anesthesia reversal” and the side-effects entry is given as “no side-effects of any kind were noted; also recorded: without any side-effects whatsoever”.

In the case of `Cc1ccc(N(CC2=NCCN2)c2cccc(O)c2)cc1` [phentolamine], the “side effects reported following administration” value in the series on patients was “Myocardial infarction, cerebrovascular spasm, and cerebrovascular occlusion have been reported”. In series [2], the duration of anesthesia entry is on record as “reduction in the duration of anesthesia with increasing amounts”.

Source of the values: patent US7261889B2, “Local anesthetic methods and kits” (Novalar Pharmaceuticals, Inc., priority 2000, dated 2007).
